Conditions: Liquid, Vibrating tube method

CCCCCCCCCC [decane]
Conditions | mass density [kg/m3]
323.15 K, 32682 kPa | 732.9
323.15 K, 32750 kPa | 733
323.15 K, 32786 kPa | 733
323.15 K, 32870 kPa | 732.9
323.15 K, 33409 kPa | 733.4
323.15 K, 33442 kPa | 733.3
323.15 K, 33464 kPa | 733.5
323.15 K, 33482 kPa | 733.3
323.15 K, 33530 kPa | 733.5
323.15 K, 33575 kPa | 733.5
323.15 K, 33593 kPa | 733.4
323.15 K, 34001 kPa | 733.8
323.15 K, 34025 kPa | 733.8
323.15 K, 34059 kPa | 733.8
323.15 K, 34079 kPa | 733.8
323.15 K, 34114 kPa | 733.9
323.15 K, 34138 kPa | 733.8
323.15 K, 34175 kPa | 734
323.15 K, 34199 kPa | 733.8
323.15 K, 34237 kPa | 733.8
323.15 K, 34400 kPa | 734
323.15 K, 34425 kPa | 734.1
323.15 K, 34440 kPa | 734
323.15 K, 34451 kPa | 734.1
323.15 K, 34456 kPa | 734
323.15 K, 34460 kPa | 734.2
323.15 K, 34463 kPa | 734.1
323.15 K, 34464 kPa | 734.1
323.16 K, 356 kPa | 707.2
323.16 K, 379 kPa | 707.1
323.16 K, 400 kPa | 707.2
323.16 K, 417 kPa | 707.2
323.16 K, 438 kPa | 707.2
323.16 K, 464 kPa | 707.2
323.16 K, 488 kPa | 707.3
323.16 K, 517 kPa | 707.3
323.16 K, 541 kPa | 707.3
323.16 K, 575 kPa | 707.3
323.16 K, 612 kPa | 707.4
323.16 K, 646 kPa | 707.4
323.16 K, 728 kPa | 707.6
323.16 K, 944 kPa | 707.8
323.16 K, 1001 kPa | 707.8
323.16 K, 1024 kPa | 707.7
323.16 K, 1047 kPa | 707.8
323.16 K, 1070 kPa | 707.8
323.16 K, 1102 kPa | 707.8
323.16 K, 1211 kPa | 708
323.16 K, 1244 kPa | 708
323.16 K, 1280 kPa | 708.1
323.16 K, 1314 kPa | 708
323.16 K, 1337 kPa | 708.2
323.16 K, 1362 kPa | 708.2
323.16 K, 1381 kPa | 708.2
323.16 K, 1405 kPa | 708.1
323.16 K, 1427 kPa | 708.2
323.16 K, 1453 kPa | 708.3
323.16 K, 1479 kPa | 708.2
323.16 K, 1503 kPa | 708.2
323.16 K, 1524 kPa | 708.3
323.16 K, 1553 kPa | 708.2
323.16 K, 1582 kPa | 708.2
323.16 K, 1608 kPa | 708.4
323.16 K, 1630 kPa | 708.4
323.16 K, 1671 kPa | 708.3
323.16 K, 1694 kPa | 708.4
323.16 K, 1723 kPa | 708.5
323.16 K, 1748 kPa | 708.5
